Test results from patent EP0046242A1, “Anti-tumor agent comprising an organosilicon compound” (Shin-Etsu Chemical Co., Ltd., priority 1980, dated 1982).
Values after ≈ are worked out from the molar mass of the structure shown. Where a name gives a salt, the structure may show the parent alone.

System: B-16 melanoma cells
Experiment: In vitro tissue culture test of tumor cell growth inhibition
Type: cell-based
Settings: Mus musculus, B16, Eagle's medium with 10 % calf blood plasma, 37 °C, compound added after 24 hours, three further days
Protocol: (§1) An in vitro test by tissue culture was undertaken for the activity of 2-(2-aminoethylthio)ethyl trimethyl silane against the growth of three kinds of tumor cells. The tumor cells used in the test were Ehrlich's cancer cells, Lewis lung cancer cells and B-16 melanoma cells and each kind of the above tumor cells was cultured in several Eagle's nutrient media admixed with 10 % of calf blood plasma at 37 °C.
(§2) After 24 hours from the start of the culture, 2-(2-amino- ethylthio)ethyl trimethyl silane was added to each of the nutrient media in a different concentration and, after additional three days at the same temperature, the conentration IC50 was determined with which the multiplication of the tumor cells was inhibited in 50 % of the tested groups. The results were as shown below

SMILES | IC50 [µg/mL]
C[Si](C)(C)CCSCCN [Me3Si-(-CH2-)2-S-(-CH2-)2-NH2, 2-(2-aminoethylthio)ethyl trimethyl silane] | 18 (≈ 101 µM)

System: Ehrlich's cancer cells
Experiment: as above
Type: cell-based
Settings: Eagle's medium with 10 % calf blood plasma, 37 °C, compound added after 24 hours, three further days
Protocol: as §1, §2

SMILES | IC50 [µg/mL]
C[Si](C)(C)CCSCCN [Me3Si-(-CH2-)2-S-(-CH2-)2-NH2, 2-(2-aminoethylthio)ethyl trimethyl silane] | 12 (≈ 67.6 µM)

System: Lewis lung cancer cells
Experiment: as above
Type: cell-based
Settings: Lewis lung carcinoma, Eagle's medium with 10 % calf blood plasma, 37 °C, compound added after 24 hours, three further days
Protocol: as §1, §2

SMILES | IC50 [µg/mL]
C[Si](C)(C)CCSCCN [Me3Si-(-CH2-)2-S-(-CH2-)2-NH2, 2-(2-aminoethylthio)ethyl trimethyl silane] | 14 (≈ 78.9 µM)

System: B-16 melanoma cells implanted in mice
Experiment: Animal test of growth inhibition of implanted B-16 melanoma in mice
Type: in vivo
Settings: Mus musculus, B16, read-out: Tumor inhibiting efficiency, female BDF1-JCR mice, 1 x 10^5 B-16 cells subcutaneously; oral, 100 mg once a day for 5 days from second day; tumor weight vs control at day 14
Protocol: Animal tests were conducted to examine the activity of several compounds including 2-(2-aminoethylthio)ethyl trimethyl silane in the inhibiting power against the growth of the B-16 melanoma cells implanted in mice as the test animals.
Thus each of 12 female mice of the BDF1-JCR lineage was implanted subcutaneously with 1 x 10^5 cells of the B-16 black tumor.
Six of the thus treated mice were bred as such as a control group and the other six mice as the test group were orally administrated once a day with 100 mg of the test compound for 5 days beginning with the second day of the implantation.
The results of the tests were expressed by the tumor inhibiting efficiency in % calculated by the following equation, in which W^1 is the averaged tumor weight per mouse in the control group and W^2 is the averaged tumor weight per mouse in the test group. [formula]
For comparison, similar animal tests were undertaken with FT-207 as a derivative of 5-fluorouracil with the dose amount at one time increased to 130 mg.

SMILES | inhibition in vivo at 100 mg [%]
CC[Si](CC)(CC)CSCCN [Et3Si-CH2-S-(-CH2-)2-NH2, (2-aminoethylthio)methyl triethyl silane] | 91.1
C[Si](C)(C)CCCSCCN [Me3Si-(-CH2-)3-S-(-CH2-)2-NH2, 3-(2-aminoethylthio)propyl trimethyl silane] | 93.9
CCN(CC)CSCCC[Si](C)(C)C [Me3Si-(-CH2-)3-S-CH2-NEt2] | 83.9
CCN(CC)CSCC[Si](C)(C)C [Me3Si-(-CH2-)2-S-CH2-NEt2] | 89.2
C[Si](C)(C)CCSCCN [Me3Si-(-CH2-)2-S-(-CH2-)2-NH2, 2-(2-aminoethylthio)ethyl trimethyl silane] | 95.6
CC[Si](CC)(CC)CCSCCN [Et3Si-(-CH2-)2-S-(-CH2-)2-NH2, 2-(2-aminoethylthio)ethyl triethyl silane] | 90.8
CCN(CC)CSC[Si](C)(CC)CC [Me·Et2Si-CH2-S-CH2-NEt2] | 86.5
C[Si](C)(CCSCCN)CCC(F)(F)F [(CF3CH2CH2)Me2Si-(CH2-)2-S-(-CH2-)2-NH2, 2-(2-aminoethylthio)-ethyl 3,3,3-trifluoropropyl dimethyl silane] | 96.8
C=C[Si](C)(C)CCSCCN [Vi·Me2Si-(-CH2-)2-S-(-CH2-)2-NH2, 2-(2-aminoethylthio) ethyl vinyl dimethyl silane] | 95.7
CCN(CC)CSCC[Si](CC)(CC)CC [Et3Si-(-CH2)2-S-CH2-NEt2] | 90.5
CCN(CC)CSCC[Si](C)(CC)CC [Me·Et2Si-(-CH2-)2-S-CH2-NEt2] | 86.9
C[Si](C)(CCSCCN)c1ccccc1 [Ph·Me2Si-(-CH2-)2-S-(-CH2-)2-NH2, 2-(2-aminoethylthio)ethyl phenyl dimethyl silane] | 82.6
CCN(CC)CSC[Si](CC)(CC)CC [Et3Si-CH2-S-CH2-NEt2] | 81.7
CCN(CC)CSCCC[Si](CC)(CC)CC [Et3Si-(-CH2-)3-S-CH2-NEt2] | 84.4
CCN(CC)CCSCCC[Si](CC)(CC)CC [Et3Si-(-CH2-)3-S-(-CH2-)2-NEt2] | 76.7

Same assay, conditions: comparison; female BDF1-JCR mice, B-16 cells subcutaneously; dose at one time 130 mg; tumor weight vs control at day 14

SMILES | Tumor inhibiting efficiency [%]
O=c1[nH]c(=O)n(C2CCCO2)cc1F (stereo not drawn) [FT-207, reference compound] | 20.5

Same assay, conditions: female BDF1-JCR mice, 1 x 10^5 B-16 cells subcutaneously; oral, 100 mg once a day for 5 days from second day; tumor weight vs control at day 14

SMILES | Tumor inhibiting efficiency [%]
C[Si](C)(C)CCSCCN [Me3Si-(-CH2-)2-S-(-CH2-)2-NH2·CH3COOH] | 95.0
C[Si](C)(C)CCSCCN [Me3Si-(-CH2-)2-S-(-CH2-)2-NH2·HCl, hydrochloride of 2-(2-aminoethylthio)ethyl trimethyl silane] | 97.9
